Experimental data as given in PubChem BioAssay (NCI).
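Values below derive from 48-hour exposures of cells grown in 96-well plates, with endpoints linearly interpolated between the two concentrations bracketing the appropriate inhibition level. At the GI50, growth is halved. TGI: concentration producing complete growth inhibition.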

Assays:
Assay in all cases: inhibition of tumour cell growth, NCI panel, 48 h
ACHN renal = system: ACHN renal
BT-549 breast = system: BT-549 breast
EKVX NSCLC = system: EKVX NSCLC
MDA-MB-435 = system: MDA-MB-435
MOLT-4 leukemia = system: MOLT-4 leukemia
SNB-75 CNS = system: SNB-75 CNS
U251 CNS = system: U251 CNS
UO-31 renal = system: UO-31 renal
NCI-H226 lung = system: NCI-H226 lung
NCI-H522 lung = system: NCI-H522 lung

| SMILES | TGI (ACHN renal) [µM] | TGI (BT-549 breast) [µM] | TGI (EKVX NSCLC) [µM] | TGI (MDA-MB-435) [µM] | TGI (MOLT-4 leukemia) [µM] | TGI (SNB-75 CNS) [µM] | TGI (U251 CNS) [µM] | TGI (UO-31 renal) [µM] | TGI (NCI-H226 lung) [µM] | TGI (NCI-H522 lung) [µM] | GI50 (ACHN renal) [µM] | GI50 (EKVX NSCLC) [µM] | GI50 (MOLT-4 leukemia) [µM] | GI50 (NCI-H226 lung) [µM] | GI50 (NCI-H522 lung) [µM] | GI50 (SNB-75 CNS) [µM] | GI50 (U251 CNS) [µM] | GI50 (UO-31 renal) [µM] |
| --- | --- | --- | --- | --- | --- | --- | --- | --- | --- | --- | --- | --- | --- | --- | --- | --- | --- | --- |
| C[C@@H]1S[C@H](c2c(Cl)cccc2Cl)N2Cc3ccccc3N=C12 | > 100 | > 100 | > 100 | > 100 | > 100 | > 100 | > 100 | > 100 | – | – | – | – | – | – | – | – | – | – |
| CC1=NC(=Cc2ccc([N+](=O)[O-])cc2)C(=O)N1n1c(-c2ccccc2)nc2ccccc2c1=O | – | > 100 | > 100 | > 100 | 72.5 | > 100 | – | > 100 | > 100 | 74.5 | – | – | – | – | – | – | – | – |
| CC(=O)N(O)c1ccc(-c2nc3ccccc3s2)cc1 | > 100 | – | – | > 100 | > 100 | > 100 | > 100 | > 100 | 73.2 | 97.2 | – | – | – | – | – | – | – | – |
| COc1ccc(C(C2=C(O)COC2=O)c2cc3c(cc2O)OCO3)cc1OC (stereo unspecified) | > 100 | > 100 | > 100 | > 100 | > 100 | > 100 | – | > 100 | > 100 | – | – | – | – | – | – | – | – | – |
| COc1cc(N(Cc2ccc3oc(=O)c(-c4ccccc4)nc3c2)Cc2ccc3oc(=O)c(-c4ccccc4)nc3c2)cc(OC)c1OC | > 10 | – | > 10 | > 10 | > 10 | > 10 | > 10 | > 10 | > 10 | > 10 | – | – | – | – | – | – | – | – |
| Cc1ccccc1NC(=O)Cc1csc2[n+]1C(=O)/C(=C/c1ccc([N+](=O)[O-])cc1)S2 | > 100 | 38.6 | > 100 | > 100 | > 100 | 63.1 | > 100 | 85.5 | > 100 | – | – | – | – | – | – | – | – | – |
| O=C(CCc1ccccc1)ON1C(=S)C(c2ccccc2)(c2ccccc2)N=C1Sc1ccccc1 | > 100 | > 100 | > 100 | – | 28.6 | > 100 | – | > 100 | > 100 | – | – | – | – | – | – | – | – | – |
| Oc1[nH]c2ccccc2c1/C=c1/cc2c(c(-c3ccc(F)cc3)n1)=Nc1ccccc1-2 | 2.54 | – | 72.7 | – | 5.41 | 1.27 | 2.17 | 2.21 | 10.7 | 0.99 | 1.12 | 3.01 | 2.17 | 1.52 | 0.218 | 0.227 | 0.94 | 0.353 |
| Cn1c(N/N=C/c2ccccc2)nc(-c2ccc([N+](=O)[O-])cc2)c(C#N)c1=O | > 100 | – | > 100 | > 100 | > 100 | > 100 | > 100 | > 100 | – | > 100 | – | – | – | – | – | – | – | – |
| CCOC(=O)C1=C(C)N(c2ccc(OC)cc2)C2(O)C=CC(=O)C3=C(O)c4ccccc4C(=O)C312 (stereo unspecified) | 39.3 | 29 | 23.4 | 18.7 | 20.5 | – | 23.5 | 31 | – | 11.9 | – | – | – | – | – | – | – | – |
| O=C(NNc1nc(-c2ccccc2)cs1)C(F)(F)F | > 100 | – | > 100 | > 100 | > 100 | 91 | 98.7 | 31.6 | > 100 | > 100 | – | – | – | – | – | – | – | – |
| Cc1c(/C=N/N(C)C)oc2c1cc(O)c1ncccc12 | > 100 | – | 6.37 | – | 16.8 | 86.6 | > 100 | 7.12 | 48.9 | 8.58 | – | – | – | – | – | – | – | – |
| S=C(Nc1ccc2cn[nH]c2c1)Nc1ccc2cn[nH]c2c1 | > 100 | > 100 | > 100 | > 100 | – | > 100 | > 100 | > 100 | > 100 | > 100 | – | – | – | – | – | – | – | – |
| CCOC(=O)Cc1nc2c(N)ncnc2n1C1OC(COC(C)=O)C(OC(C)=O)C1OC(C)=O (stereo unspecified) | > 100 | > 100 | > 100 | > 100 | > 100 | – | > 100 | > 100 | > 100 | > 100 | – | – | – | – | – | – | – | – |
| CN1c2ccccc2N(C(=O)c2ccccc2)C(CC(=O)O)c2cccn21 (stereo unspecified) | > 100 | – | > 100 | – | > 100 | > 100 | > 100 | > 100 | – | > 100 | – | – | – | – | – | – | – | – |
| O=C1Nc2ccccc2/C1=c1\[nH]c(=O)/c(=C\c2ccc(OCc3ccccc3)cn2)[nH]c1=O | > 100 | – | > 100 | > 100 | > 100 | 14 | 44.8 | 0.848 | > 100 | > 100 | – | – | – | – | – | – | – | – |
| Cc1nc2ccccc2c(/C=C/c2ccc(Cl)cc2)c1C(=O)/C=C/c1ccc(Cl)cc1 | – | – | – | – | > 100 | – | 3.03 | 2.25 | 3.29 | 4.77 | – | – | 0.788 | 1.59 | 1.25 | – | 1.39 | 1.06 |
| CC(=O)Oc1ccc(/C=C/C(=O)O[C@@H](C(=O)O)[C@@H](OC(=O)/C=C/c2ccc(OC(C)=O)c(OC(C)=O)c2)C(=O)O)cc1OC(C)=O | > 100 | > 100 | > 100 | > 100 | – | > 100 | > 100 | > 100 | – | > 100 | – | – | – | – | – | – | – | – |
| COc1cc(-c2ccccc2N)c2cccnc2c1OC | 15.2 | 22.2 | 13.8 | 21.1 | 7.94 | – | 17.7 | 15 | 26.6 | 17.9 | – | – | – | – | – | – | – | – |
| COc1cc2nc(-c3cccs3)[nH]c(=O)c2cc1OC | > 100 | > 100 | > 100 | > 100 | – | > 100 | > 100 | > 100 | > 100 | > 100 | – | – | – | – | – | – | – | – |
| CCOC(=O)N(c1ccccc1)N(CC)C(=O)/C(C)=N/Nc1ccc([N+](=O)[O-])cc1 | 40.9 | – | 39.8 | – | 52.6 | 35.2 | 28.2 | 29.5 | 37.5 | 29.3 | – | – | – | – | – | – | – | – |
| O=C(CCc1ccccc1)On1c(-c2ccccc2)nc2ccccc2c1=S | > 100 | > 100 | 52.1 | > 100 | 23.3 | > 100 | > 100 | 39.3 | 29.9 | – | – | – | – | – | – | – | – | – |
| CCN(CC)c1ccc2cc(C(=O)Nc3ccccn3)c(=N)oc2c1 | > 100 | > 100 | > 100 | > 100 | > 100 | > 100 | > 100 | – | > 100 | – | – | – | – | – | – | – | – | – |
